Measured values as given in patent US20100105641A1, “Oral Contraceptive Spray” (priority 2006, published 2010).

How the values were obtained:
[1] = Method: Solutions were prepared essentially according to the procedure as described in Example 1. The solubility of each one of the active ingredients desogestrel, 3-β-hydroxydesogestrel, 3-keto desogestrel and ethinyl estradiol in these solutions was tested.
[2] = human, in vivo
Method: Sixteen healthy female subjects were treated with 0.1 ml of the oral spray as described in Example 1 or with Marvelon® tablets (150 μg desogestrel, 30 μg ethinyl estradiol) in a cross over design. The spray was administered sublingually. Marvelon® was ingested. Serum concentration versus time profiles were obtained for etonogestrel and plasma concentration versus time profiles were obtained for ethinyl estradiol. FIGS. 2, 3, 4 and 5 show the average values of the serum/plasma concentrations versus time profiles.
This leads to the conclusion that a lower dose of either etonogestrel, or ethinyl estradiol, or both is possible for oral mucosal administration.

[3] = Cross-over study in sixteen healthy female subjects: sublingual oral spray (75 μg etonogestrel) vs ingested Cerazette tablets, serum concentration versus time profiles; type: in vivo, human; settings: FIGS. 6 and 7; 75 μg etonogestrel spray vs Cerazette tablet
Method: Sixteen healthy female subjects were treated with 0.1 ml of oral spray comprising the liquid as depicted in table 6 to administer 75 μg etonogestrel, or with Cerazette® tablets (75 μg desogestrel) in a cross over design. The spray has been administered sublingually. Cerazette® has been ingested. Serum concentration versus time profiles were obtained for etonogestrel.
This leads to the conclusion that a lower dose of either etonogestrel is possible for oral mucosal administration to achieve a similar pharmacological effect.

[4] = exposure of etonogestrel after oral ingestion as its prodrug desogestrel; cited from earlier work

In the case of C#C[C@]1(O)CC[C@H]2[C@@H]3CCC4=C[C@@H](O)CC[C@@H]4[C@H]3C(=C)C[C@@]21CC [3-β-Hydroxy-desogestrel, 3-β-hydroxydesogestrel], the “Solubility in Liquid 1” value [1] is reported as “≧8.8 mg/mL”, the “Solubility in Liquid 2” value [1] is reported as “≧7.0 mg/mL” and the “Solubility in Liquid 3” value [1] is reported as “≧6.1 mg/mL”. The “Solubility in Liquid 4” value [1] was “≧6.9 mg/mL” and the “Solubility in Liquid 5” value [1] was “≧8.7 mg/mL”.

With C#C[C@]1(O)CC[C@H]2[C@@H]3CCc4cc(O)ccc4[C@H]3CC[C@@]21C [Ethinyl Estradiol, ethinyl estradiol] the “levels of ethinyl estradiol in plasma, oral mucosal administration compared to oral ingestion of equivalent amount using a tablet” value [2] was “much higher levels”.

For C#C[C@]1(O)CC[C@H]2[C@@H]3CCC4=CC(=O)CC[C@@H]4[C@H]3C(=C)C[C@@]21CC [Etonogestrel, 13-ethyl-11methylene-17β-hydroxy-18,19-dinor-17α-pregnen-3-one], the “levels of etonogestrel in serum, oral mucosal administration compared to oral ingestion of equivalent amount of desogestrel using a tablet” value [2] is listed as “much higher levels”, the “levels of etonogestrel in serum, oral mucosal administration compared to oral ingestion of an equivalent amount of desogestrel using a tablet” value [3] is listed as “much higher levels” and the oral bioavailability [4] is listed as “about 80%”.
